Reference: US20260034044A1, “A PRESERVATIVE COMPOSITION” (AnalytiCon Discovery - Zweigniederlassung der BRAIN Biotech …, priority 2022, published 2026)
≈ marks a conversion by molar mass, not a printed value.

Tests used:
Format in all cases: cell-based
[1] = system: Candida albicans ATCC10231; experiment: Antimicrobial activity (MIC); conditions: potato dextrose broth pH 3.8, visual evaluation, read-out: Minimal Inhibitory Concentration (MIC)
[2] = system: Byssochlamys fulva DSM 1808; experiment: Antimicrobial activity (MIC); conditions: Paecilomyces fulvus, DSM1808, potato dextrose broth pH 3.8, visual evaluation, read-out: Minimal Inhibitory Concentration (MIC)
[3] = system: Enterobacter cloacae DSM 6234; experiment: Antimicrobial activity (MIC); conditions: DSM6234, potato dextrose broth pH 3.8, visual evaluation, read-out: Minimal Inhibitory Concentration (MIC)
[4] = system: Corynebacterium xerosis DSM 20743; experiment: Antimicrobial activity (MIC); conditions: DSM20743, potato dextrose broth pH 3.8, visual evaluation, read-out: Minimal Inhibitory Concentration (MIC)
[5] = system: Botrytis cinerea DSM 5145; experiment: Antimicrobial activity (MIC); conditions: DSM5145, potato dextrose broth pH 3.8, visual evaluation, read-out: Minimal Inhibitory Concentration (MIC)
[6] = system: Campylobacter jejuni DSM 4688; experiment: Antimicrobial activity (MIC); conditions: DSM4688, potato dextrose broth pH 3.8, visual evaluation, read-out: Minimal Inhibitory Concentration (MIC)
[7] = system: Gluconacetobacter liquefaciens DSM 5603; experiment: Antimicrobial activity (MIC); conditions: DSM5603, potato dextrose broth pH 3.8, visual evaluation, read-out: Minimal Inhibitory Concentration (MIC)
[8] = system: Penicillium expansum DSM 62841; experiment: Antimicrobial activity (MIC); conditions: DSM62841, potato dextrose broth pH 3.8, visual evaluation, read-out: Minimal Inhibitory Concentration (MIC)
[9] = system: Candida parapsilosis ATCC 20384; experiment: Antimicrobial activity (MIC); conditions: Lodderomyces parapsilosis, ATCC20384, potato dextrose broth pH 3.8, visual evaluation, read-out: Minimal Inhibitory Concentration (MIC)
[10] = system: Zygosaccharomyces bailii DSM 70834; experiment: Antimicrobial activity (MIC); conditions: DSM70834, potato dextrose broth pH 3.8, visual evaluation, read-out: Minimal Inhibitory Concentration (MIC)
[11] = system: Bacillus licheniformis DSM 13; experiment: Antimicrobial activity (MIC); conditions: DSM13, potato dextrose broth pH 3.8, visual evaluation, read-out: Minimal Inhibitory Concentration (MIC)
[12] = system: Malassezia furfur DSM 6170; experiment: Antimicrobial activity (MIC); conditions: DSM6170, potato dextrose broth pH 3.8, visual evaluation, read-out: Minimal Inhibitory Concentration (MIC)
[13] = system: Listeria monocytogenes DSM 20600; experiment: Antimicrobial activity (MIC); conditions: DSM20600, potato dextrose broth pH 3.8, visual evaluation, read-out: Minimal Inhibitory Concentration (MIC)
[14] = system: Actinomyces viscosus DSM43798; experiment: Antimicrobial activity (MIC); conditions: potato dextrose broth pH 3.8, visual evaluation, read-out: Minimal Inhibitory Concentration (MIC)
[15] = system: Bacillus cereus DSM4490; experiment: Antimicrobial activity (MIC); conditions: potato dextrose broth pH 3.8, visual evaluation, read-out: Minimal Inhibitory Concentration (MIC)
[16] = system: Alternaria alternata DSM 12633; experiment: Antimicrobial activity (MIC); conditions: DSM12633, potato dextrose broth pH 3.8, visual evaluation, read-out: Minimal Inhibitory Concentration (MIC)
[17] = system: Cladosporium cladosporioides DSM19653; experiment: Antimicrobial activity (MIC); conditions: potato dextrose broth pH 3.8, visual evaluation, read-out: Minimal Inhibitory Concentration (MIC)
[18] = system: Fusobacterium nucleatum subsp. vincentii DSM 19507; experiment: Antimicrobial activity (MIC); conditions: DSM19507, potato dextrose broth pH 3.8, visual evaluation, read-out: Minimal Inhibitory Concentration (MIC)
[19] = system: Lactobacillus paracasei ssp. paracasei DSM 46331; experiment: Antimicrobial activity (MIC); conditions: Lacticaseibacillus paracasei, DSM46331, potato dextrose broth pH 3.8, visual evaluation, read-out: Minimal Inhibitory Concentration (MIC)
[20] = system: Alicyclobacillus acidoterrestris DSM 2498; experiment: Antimicrobial activity (MIC); conditions: DSM2498, potato dextrose broth pH 3.8, visual evaluation, read-out: Minimal Inhibitory Concentration (MIC)
[21] = system: Pseudomonas fluorescens DSM50337; experiment: Antimicrobial activity (MIC); conditions: potato dextrose broth pH 3.8, visual evaluation, read-out: Minimal Inhibitory Concentration (MIC)
[22] = system: Clostridium perfringens DSM 756; experiment: microbe, parasite or virus in culture; conditions: DSM756, pH 3.8, read-out: Minimal Inhibitory Concentration (MIC)
[23] = system: Yarrowia lipolytica DSM 70561; experiment: Antimicrobial activity (MIC); conditions: DSM70561, potato dextrose broth pH 3.8, visual evaluation, read-out: Minimal Inhibitory Concentration (MIC)
[24] = system: Pseudomonas aeruginosa DSM 1117; experiment: Antimicrobial activity (MIC); conditions: DSM1117, potato dextrose broth pH 3.8, visual evaluation, read-out: Minimal Inhibitory Concentration (MIC)
[25] = system: Pasteurella multocida ssp. multocida DSM 16031; experiment: Antimicrobial activity (MIC); conditions: DSM16031, potato dextrose broth pH 3.8, visual evaluation, read-out: Minimal Inhibitory Concentration (MIC)
[26] = system: Porphyromonas gingivalis DSM 20709; experiment: Antimicrobial activity (MIC); conditions: DSM20709, potato dextrose broth pH 3.8, visual evaluation, read-out: Minimal Inhibitory Concentration (MIC)
[27] = system: Aspergillus brasiliensis DSM 1988; experiment: Antimicrobial activity (MIC); conditions: DSM1988, potato dextrose broth pH 3.8, visual evaluation, read-out: Minimal Inhibitory Concentration (MIC)
[28] = system: Zygosaccharomyces rouxii DSM 7525; experiment: Antimicrobial activity (MIC); conditions: DSM7525, potato dextrose broth pH 3.8, visual evaluation, read-out: Minimal Inhibitory Concentration (MIC)
[29] = system: Streptococcus mutans DSM 20523; experiment: Antimicrobial activity (MIC); conditions: DSM20523, potato dextrose broth pH 3.8, visual evaluation, read-out: Minimal Inhibitory Concentration (MIC)

Compound	MIC [1] [µg/mL]	MIC [2] [µg/mL]	MIC [3] [µg/mL]	MIC [4] [µg/mL]	MIC [5] [µg/mL]	MIC [6] [µg/mL]	MIC [7] [µg/mL]	MIC [8] [µg/mL]	MIC [9] [µg/mL]	MIC [10] [µg/mL]	MIC [11] [µg/mL]	MIC [12] [µg/mL]	MIC [13] [µg/mL]	MIC [14] [µg/mL]	MIC [15] [µg/mL]	MIC [16] [µg/mL]	MIC [17] [µg/mL]	MIC [18] [µg/mL]	MIC [19] [µg/mL]	MIC [20] [µg/mL]	also measured
C[C@H]1CC[C@@]2(OC1)O[C@H]1CC3C4CC[C@H]5C[C@@H](O[C@@H]6O[C@H](CO)[C@H](O[C@@H]7O[C@H](CO)[C@@H](O)[C@H](O[C@@H]8OC[C@@H](O)[C@H](O)[C@H]8O)[C@H]7O[C@@H]7O[C@H](CO)[C@@H](O)[C@H](O)[C@H]7O)[C@H](O)[C@H]6O)[C@H](O)C[C@]5(C)C4=CC(=O)[C@]3(C)[C@H]1[C@@H]2C (some centres unmarked) [A]	> 80	> 80	> 80	> 80	> 80	> 80	140 (≈ 132 µM)	> 500	> 80	> 80	> 80	> 80	> 80	> 80	> 80	> 80	> 80	80 (≈ 75.2 µM)	> 80	40 (≈ 37.6 µM)	MIC [21]: > 80 µg/mL; MIC [22]: > 80 µg/mL; MIC [23]: > 80 µg/mL; MIC [24]: > 80 µg/mL; MIC [25]: > 80 µg/mL; MIC [26]: > 80 µg/mL; MIC [27]: > 80 µg/mL; MIC [28]: 500 µg/mL (≈ 470 µM); MIC [29]: > 80 µg/mL
C[C@@H]1CC[C@@]2(OC1)O[C@H]1CC3C4CC=C5CC(O[C@@H]6O[C@H](CO)[C@@H](O[C@@H]7O[C@@H](C)[C@H](O[C@@H]8O[C@@H](C)[C@H](O)[C@@H](O)[C@H]8O)[C@@H](O)[C@H]7O)[C@H](O)[C@H]6O[C@@H]6O[C@@H](C)[C@H](O)[C@@H](O)[C@H]6O)CC[C@]5(C)C4CC[C@]3(C)[C@@]1(O)[C@@H]2C (some centres unmarked) [B]	> 80	> 80	> 80	> 80	> 80	> 80	40 (≈ 38.8 µM)	> 500	> 80	> 80	> 80	80 (≈ 77.6 µM)	> 80	> 80	> 80	> 80	> 80	> 80	> 80	140 (≈ 136 µM)	MIC [21]: > 80 µg/mL; MIC [22]: > 80 µg/mL; MIC [23]: > 80 µg/mL; MIC [24]: > 80 µg/mL; MIC [25]: > 80 µg/mL; MIC [26]: > 80 µg/mL; MIC [27]: > 80 µg/mL; MIC [28]: 500 µg/mL (≈ 485 µM); MIC [29]: > 80 µg/mL
CC1CC[C@@]2(OC1)O[C@H]1CC3C4CC=C5C[C@@H](O[C@@H]6O[C@H](CO)[C@@H](O[C@@H]7O[C@@H](C)[C@H](O)[C@@H](O)[C@H]7O)[C@H](O)[C@H]6O[C@@H]6O[C@@H](C)[C@H](O)[C@@H](O)[C@H]6O)CC[C@]5(C)C4CC[C@]3(C)[C@@]1(O)[C@@H]2C (some centres unmarked) [C]	> 80	> 80	> 80	> 80	> 80	> 80	40 (≈ 45.2 µM)	> 500	> 80	> 80	> 80	80 (≈ 90.4 µM)	> 80	> 80	> 80	> 80	> 80	> 80	> 80	80 (≈ 90.4 µM)	MIC [21]: > 80 µg/mL; MIC [22]: > 80 µg/mL; MIC [23]: > 80 µg/mL; MIC [24]: > 80 µg/mL; MIC [25]: > 80 µg/mL; MIC [26]: > 80 µg/mL; MIC [27]: > 80 µg/mL; MIC [28]: 500 µg/mL (≈ 565 µM); MIC [29]: > 80 µg/mL
C[C@H]1CC[C@@]2(OC1)O[C@H]1CC3C4CC[C@H]5C[C@@H](O[C@@H]6O[C@H](CO)[C@H](O[C@@H]7O[C@H](CO)[C@@H](O)[C@H](O)[C@H]7O[C@@H]7O[C@H](CO)[C@@H](O)[C@H](O)[C@H]7O)[C@H](O)[C@H]6O)[C@H](O)C[C@]5(C)C4=CC(=O)[C@]3(C)[C@H]1[C@@H]2C (some centres unmarked) [D]	> 80	> 80	> 80	> 80	> 80	> 80	140 (≈ 150 µM)	> 500	> 80	> 80	> 80	> 80	> 80	> 80	> 80	> 80	> 80	80 (≈ 85.9 µM)	> 80	40 (≈ 43 µM)	MIC [21]: > 80 µg/mL; MIC [22]: > 80 µg/mL; MIC [23]: > 80 µg/mL; MIC [24]: > 80 µg/mL; MIC [25]: > 80 µg/mL; MIC [26]: > 80 µg/mL; MIC [27]: > 80 µg/mL; MIC [28]: 500 µg/mL (≈ 537 µM); MIC [29]: > 80 µg/mL
